Laboratory results: patent US12180226B2, “Spirotricycle RIPK1 inhibitors and methods of uses thereof” (Merck Sharp & Dohme LLC, priority 2021, dated 2024)

biological target: RIPK1 (recombinant GST-RIPK1 kinase domain, residues 1-327) (Homo sapiens (Human), UniProt Q13546); test: RIPK1-ADP-Glo Enzymatic Assay; assay type: biochemical; settings: ADP-Glo; 25 nM GST-RIPK1, 300 μM ATP; assay lower limit ~25 nM; read-out: RIPK1 V0 Ec50
Outline: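 Luminescent ADP-Glo readout of ATP-to-ADP conversion. Conditions: 25 nM enzyme, 300 μM ATP, 3 μM dephospho-MBP, pH 7.3 HEPES buffer with 20 mM MgCl2; 30 min compound pre-incubation, 150 min reaction. EC50 via four-parameter sigmoidal regression; assay floor ~25 nM.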

Chain of RIPK1 (recombinant GST-RIPK1 kinase domain, residues 1-327) (Q13546 1-327): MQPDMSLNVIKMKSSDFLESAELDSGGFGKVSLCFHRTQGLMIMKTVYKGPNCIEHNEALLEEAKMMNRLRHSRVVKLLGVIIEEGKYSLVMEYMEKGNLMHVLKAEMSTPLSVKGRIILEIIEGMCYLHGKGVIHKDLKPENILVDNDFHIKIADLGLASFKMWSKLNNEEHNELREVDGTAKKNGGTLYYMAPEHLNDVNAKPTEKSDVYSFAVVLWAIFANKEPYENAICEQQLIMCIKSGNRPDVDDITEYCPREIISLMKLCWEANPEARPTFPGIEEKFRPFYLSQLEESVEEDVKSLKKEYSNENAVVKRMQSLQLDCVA

Q: With O=C1N2[C@@H](CC[C@H]2c2cccc(F)c2)OC12CCN(c1ncnc3ccnn13)CC2 [Example 4.204, (5′S,7a′R)-5′-(3-fluorophenyl)-1-(pyrazolo[1,5-a] [1,3,5]triazin-4-yl)tetrahydro-3′H-spiro[piperidine-4,2′-pyrrolo[2,1-b] [1,3]oxazol]-3′-one] as the compound, how does the EC50 read?
A: < 25 nM

Q: Which EC50 does the source give for O=C1N2[C@@H](CC[C@H]2c2ccccc2)OC12CCN(c1ncc(Br)c3ncnn13)CC2 [Example 4.239, (5′S,7a′R)-1-(8-bromo [1,2,4]triazolo[1,5-c]pyrimidin-5-yl)-5′-phenyltetrahydro-3′H-spiro[piperidine-4,2′-pyrrolo[2,1-b] [1,3]oxazol]-3′-one] here?
A: < 25 nM

Q: Which EC50 does the source give for N#Cc1ccc(N2CCC3(CC2)O[C@@H]2CC[C@@H](c4cc(F)cc(F)c4)N2C3=O)c(F)c1 [Example 4.24, 4-[(5′S,7a′R)-5′-(3,5-difluorophenyl)-3′-oxotetrahydro-1H,3′H-spiro[piperidine-4,2′-pyrrolo[2,1-b] [1,3]oxazol]-1-yl]-3-fluorobenzonitrile] here?
A: < 25 nM

Q: Cc1cc(C(=O)N2CCC3(CC2)O[C@@H]2CC[C@@H](c4cc(F)cc(F)c4)N2C3=O)ccc1C#N [Example 5.18, 4-((5′S,7a′R)-5′-(3,5-difluorophenyl)-3′-oxo-tetrahydro-3′H-spiro [piperidine-4,2′-pyrrolo-[2,1-b]oxazole]-1-carbon-yl)-2-methylbenzonitrile] was tested. Which EC50 did it give?
A: 138 nM

Q: Which EC50 does the source give for O=C(c1ccn2ncnc2n1)N1CCC2(CC1)O[C@@H]1CC[C@@H](c3cc(F)cc(F)c3)N1C2=O [Example 6.87, (5′S,7a′R)-5′-(3,5-difluorophenyl)-1-([1,2,4]triazolo[1,5-a]pyrimidine-5-carbonyl)tetrahydro-3′H-spiro[piperidine-4,2′-pyrrolo[2,1-b] [1,3]oxazol]-3′-one] here?
A: 43.8 nM

Q: With Cc1c(Br)ccnc1C(=O)N1CCC2(CC1)O[C@@H]1CC[C@@H](c3cc(F)cc(F)c3)N1C2=O [Example 6.80, (5′S,7a′R)-1-(4-bromo-3-methylpyridine-2-carbonyl)-5′-(3,5-difluorophenyl)tetra-hydro-3′H-spiro [piperidine-4,2′-pyrrolo[2,1-b][1,3]-oxazol]-3′-one] as the compound, how does the EC50 read?
A: 153 nM

Q: With O=C1N2C(=NC13CCN(c1cc(-c4cnn(C(F)F)c4)ncn1)CC3)CC[C@H]2c1cc(F)cc(F)c1 [Example 10.3, (S)-1-(6-(1-(difluoromethyl)-1H-pyrazol-4-yl)pyrimidin-4-yl)-5′-(3,5-difluorophenyl)-6′,7′-dihydro-3′H,5′H-spiro[piperidine-4,2′-pyrrolo[1,2-a]imidazol]-3′-one] as the compound, how does the EC50 read?
A: 355 nM

Q: NC(=O)c1ccc(N2CCC3(CC2)O[C@@H]2CC[C@@H](c4ccccc4)N2C3=O)n2nccc12 [Example 4.155, 7-[(5′S,7a′R)-3′-oxo-5′-phenyltetrahydro-1H,3′H-spiro[piperidine-4,2′-pyrrolo[2,1-b] [1,3]oxazol]-1-yl]pyrazolo[1,5-a] pyridine-4-carboxamide] was tested. Which EC50 did it give?
A: < 25 nM

Q: For N#Cc1ccc(N2CCC3(CC2)O[C@@H]2CC[C@@H](c4ccccc4)N2C3=O)c(F)c1 [Example 4.73, 3-fluoro-4-[(5′S,7a′R)-3′-oxo-5′-phenyltetrahydro-1H,3′H-spiro[piperidine-4,2′-pyrrolo[2,1-b] [1,3]oxazol]-1-yl]benzonitrile], which EC50 is on record?
A: < 25 nM

Q: Which EC50 does the source give for CS(=O)(=O)C1CN(C(=O)c2nc(N3CCC4(CC3)O[C@@H]3CC[C@@H](c5cc(F)cc(F)c5)N3C4=O)ncc2F)C1 [Example 7.9, (5′S,7a′R)-5′-(3,5-difluorophenyl)-1-{5-fluoro-4-[3-(methylsulfonyl)azetidine-1-carbonyl]pyrimidin-2-yl}tetrahydro-3′H-spiro[piperidine-4,2′-pyrrolo[2,1-b][1,3]oxazol]-3′-one] here?
A: 72.6 nM

Q: With N#Cc1ccc(N2CCC3(CC2)O[C@@H]2CC[C@@H](c4ccccc4F)N2C3=O)n2ncnc12 [Example 4.249, 5-[(5′S,7a′R)-5′-(2-fluorophenyl)-3′-oxotetrahydro-1H,3′H-spiro[piperidine-4,2′-pyrrolo[2,1-b] [1,3]oxazol]-1-yl][1,2,4]triazolo[1,5-a] pyridine-8-carbonitrile] as the compound, how does the EC50 read?
A: < 25 nM

Q: Which EC50 does the source give for N#Cc1ccccc1C(=O)N1CCC2(CC1)O[C@@H]1CC[C@@H](c3ccccc3)N1C2=O [Example 6.147, 2-[(5′S,7a′R)-3′-oxo-5′-phenyltetrahydro-1H,3′H-spiro[piperi-dine-4,2′-pyrrolo[2,1-b][1,3]oxazole]-1-carbonyl]benzonitrile] here?
A: 328 nM

Q: With O=C(c1cc(F)ccc1F)N1CCC2(CC1)O[C@@H]1CC[C@@H](c3ccccc3F)N1C2=O [Example 1.12, (5′S,7a′R)-1-(2,5-difluorobenzoyl)-5′-(2-fluorophenyl)tetrahydro-3′H-spiro[piperidine-4,2′-pyrrolo[2,1-b]oxazol]-3′-one] as the compound, how does the EC50 read?
A: < 25 nM

Q: O=C(c1cnc(C(F)F)cn1)N1CCC2(CC1)O[C@@H]1CC[C@@H](c3cc(F)cc(F)c3)N1C2=O [Example 6.84, (5′S,7a′R)-1-[5-(difluoromethyl)pyr-azine-2-carbonyl]-5′-(3,5-difluorophenyl)-tetrahydro-3′H-spiro [piperidine-4,2′-pyrrolo[2,1-b][1,3]-oxazol]-3′-one] was tested. Which EC50 did it give?
A: 405 nM

Q: Which EC50 does the source give for CC1(C)Cc2cccc(C(=O)N3CCC4(CC3)O[C@@H]3CC[C@@H](c5cc(F)cc(F)c5)N3C4=O)c2O1 [Example 6.32, (5′S,7a′R)-5′-(3,5-difluorophenyl)-1-(2,2-dimethyl-2,3-dihydro-1-benzo-furan-7-carbonyl)-tetrahydro-3′H-spiro [piperidine-4,2′-pyrrolo[2,1-b][1,3]oxazol]-3′-one] here?
A: 228 nM

Q: Which EC50 does the source give for N#Cc1cnc(N2CCC3(CC2)O[C@@H]2CC[C@@H](c4cc(F)cc(F)c4)N2C3=O)s1 [Example 4.101, 2-((5′S,7a′R)-5′-(3,5-difluorophenyl)-3′-oxotetrahydro-3′H-spiro[piperidine-4,2′-pyrrolo[2,1-b]oxazol]-1-yl)thiazole-5-carbonitrile] here?
A: 40.4 nM

Q: With N#Cc1cc(F)cc([C@@H]2CC[C@H]3OC4(CCN(c5ccnc6c(F)cnn56)CC4)C(=O)N32)c1 [Example 4.121, 3-fluoro-5-[(5′S,7a′R)-1-(3-fluoropyrazolo[1,5-a]pyrimidin-7-yl)-3′-oxotetrahydro-3′H-spiro[piperidine-4,2′-pyrrolo[2,1-b] [1,3]oxazol]-5′-yl]benzonitrile] as the compound, how does the EC50 read?
A: < 25 nM

Q: With O=C1N2[C@@H](CC[C@H]2c2cc(F)cc(F)c2)OC12CCN(c1ccnc3c(F)cnn13)CC2 [Example 3.1, (5′S,7a′R)-5′-(3,5-difluorophenyl)-1-(3-fluoropyrazolo[1,5-a]pyrimidin-7-yl)tetrahydro-3′H-spiro[piperidine-4,2′-pyrrolo[2,1-b]oxazol]-3′-one] as the compound, how does the EC50 read?
A: < 25 nM

Q: How did the EC50 turn out when CCOC(=O)c1cc(N2CCC3(CC2)O[C@@H]2CC[C@@H](c4ccccc4)N2C3=O)ncn1 [Example 4.23, ethyl 6-[(5′S,7a′R)-3′-oxo-5′-phenyltetrahydro-1H,3′H-spiro[piperidine-4,2′-pyrrolo[2,1-b] [1,3]oxazol]-1-yl]pyrimidine-4-carboxylate] was run?
A: 52.8 nM

Q: For O=C1N2[C@@H](CC[C@H]2c2ccccc2)OC12CCN(c1cc(Cl)nc(C3CCCCC3)n1)CC2 [Example 4.34, (5′S,7a′R)-1-(6-chloro-2-cyclohexylpyrimidin-4-yl)-5′-phenyltetrahydro-3′H-spiro[piperidine-4,2′-pyrrolo[2,1-b] [1,3]oxazol]-3′-one], which EC50 is on record?
A: 83 nM
